{"source": "patent US10646553B2", "about": "“Use of recombinant human calcineurin B subunit” (HAIKOU QILI PHARMACEUTICAL CO., LTD., priority 2015, dated 2020)", "key": {"[1]": {"test": "Survival of tumour-bearing animals during the experiment", "type": "in vivo, BALB/c nude mice", "description": "(§1) In one embodiment of the present invention, according to the “Technical Guidelines for Non-Clinical Studies of Cytotoxic Antitumor Drugs” and “Guidelines for Pharmacodynamics of Antitumor Drugs”, IVIS Kinetics (a small animal live imaging system) was used to dynamically analyze the therapeutic effect of rhCNB for injection on the BALB/c nude mice bearing the human gastric cancer cell MGC-803 carcinoma in situ. Firstly, a BALB/c nude mouse model bearing subcutaneous transplantation tumor of human gastric cancer cell MGC-803 was established, and then a BALB/c nude mouse model bearing transplantation tumor in situ of human gastric cancer cell MGC-803 was established. […] Each experimental group is administered once daily for 15 consecutive days, except that the positive control high-dose administration group of cisplatin for injection is administered for 5 days. […] Animals were examined once using Caliper IVIS Kinetics (small animal live imaging system) before the first administration (on the administration day), every other 3 days after the first administration and on the 7th day after the last administration, respectively, and body weight was measured before each examination. At the end of the last examination, animals were sacrificed and roughly necropsied, and organs inoculated with tumor (including tumor tissues) were removed for pathological examination and immunohistochemical assay of apoptosis.\nThe high-, medium-, low-dose groups and progressively increasing-dose group of the test sample were administered once daily for 15 consecutive days;"}, "[2]": {"system": "transplantation tumor of human gastric cancer cell MGC-803 carcinoma in situ", "test": "Bioluminescence detection (IVIS small animal live imaging) and necropsy of orthotopic MGC-803 tumour in nude mice", "type": "in vivo, BALB/c nude mice", "description": "as §1\nHuman gastric cancer cell MGC-803 was routinely cultured in vitro, digested, centrifuged, and then prepared into a cell suspension with a concentration of approximately 1×10^7 cells/mL. The cells were inoculated subcutaneously into the right armpit of mice at an amount of 0.2 mL/mouse.\nWell-grown subcutaneously transplanted tumors were removed and cut into tumor tissue blocks with a size of approximately 2×2×1 mm for use. Animals to be inoculated were feed 12 hours before surgical operation and subjected to gas anesthesia with isoflurane. The anaesthetized animals were placed in supine position. The skin 2˜5 mm below the xiphoid process was cut horizontally layer-by-layer on the left side to give an opening of about 1 cm. Stomach was pull out gently using a pincette and exposed. The tumor tissue block was placed above the side near the pylorus of greater curvature of stomach of the nude mice with surgical suture #1 by “purse-string suture”, so that the tumor tissue block was wrapped therein. The skin was sutured layer by layer and disinfected by Entoiodine, and then the animals were returned back to the cage for normal feeding. 7 days after surgery, the animals were examined using the small animal live imaging system, grouped, and administrated.\nThe route for administration was by tail vein injection.\nAnimals were detected once using Caliper IVIS Kinetics small animal live imaging system at the following time point: before the first administration (on the administration day), every other 3 days after the first administration, and on the 7th day after the last administration, respectively. The body weight was measured before each detection. A substrate solution (with a concentration of 15 mg/mL) was injected intraperitoneally according to 0.1 mL/10 g body weight and a bioluminescence detection was performed 10˜15 min after injection.\nThe data obtained from the experiments were statistically analyzed using SPSS analysis software, and the significance of difference between the administration groups and the vehicle control group, and among each administration group was compared."}, "[3]": {"conditions": "SD, low-dose 1 mg/kg once daily 15 d, d3"}, "[4]": {"conditions": "SD, low-dose 1 mg/kg once daily 15 d, d6"}, "[5]": {"conditions": "SD, low-dose 1 mg/kg once daily 15 d, d9"}, "[6]": {"conditions": "SD, low-dose 1 mg/kg once daily 15 d, d12"}, "[7]": {"conditions": "SD, low-dose 1 mg/kg once daily 15 d, d15"}, "[8]": {"conditions": "SG, high-dose 5 mg/kg once daily 5 d, d3"}, "[9]": {"conditions": "SG, high-dose 5 mg/kg once daily 5 d, d6"}, "[10]": {"conditions": "X, 2 mg/kg once daily 15 d, d12"}, "[11]": {"conditions": "X, 2 mg/kg once daily 15 d, d15"}}, "data": [{"compound": "N.N.[Cl][Pt][Cl]", "note": "[cisplatin for injection, cisplatin]", "values": [{"measurement": "number of surviving animals", "setting": "[1]; SD, low-dose 1 mg/kg once daily 15 d, d0 before administration", "value": "(10)"}, {"measurement": "number of surviving animals", "setting": "[1]; [3]", "value": "(10)"}, {"measurement": "number of surviving animals", "setting": "[1]; [4]", "value": "(10)"}, {"measurement": "number of surviving animals", "setting": "[1]; [5]", "value": "(10)"}, {"measurement": "number of surviving animals", "setting": "[1]; [6]", "value": "(10)"}, {"measurement": "number of surviving animals", "setting": "[1]; [7]", "value": "(9)"}, {"measurement": "number of surviving animals", "setting": "[1]; SD, low-dose 1 mg/kg once daily 15 d, d21 (7th day after last administration)", "value": "(4)"}, {"measurement": "number of surviving animals", "setting": "[1]; SG, high-dose 5 mg/kg once daily 5 d, d0 before administration", "value": "(10)"}, {"measurement": "number of surviving animals", "setting": "[1]; [8]", "value": "(10)"}, {"measurement": "number of surviving animals", "setting": "[1]; [9]", "value": "(10)"}, {"measurement": "cause of death of the animals", "setting": "[1]; during the experiment, preliminarily believed", "value": "mainly due to drug toxicity"}, {"measurement": "Number of animals in which tumor is not detectable and not observed", "setting": "[2]; SD, low-dose 1 mg/kg once daily 15 d, d0", "value": 0}, {"measurement": "Number of animals in which tumor is not detectable and not observed", "setting": "[2]; [3]", "value": 0}, {"measurement": "Number of animals in which tumor is not detectable and not observed", "setting": "[2]; [4]", "value": 0}, {"measurement": "Number of animals in which tumor is not detectable and not observed", "setting": "[2]; [5]", "value": 0}, {"measurement": "Number of animals in which tumor is not detectable and not observed", "setting": "[2]; [6]", "value": 0}, {"measurement": "Number of animals in which tumor is not detectable and not observed", "setting": "[2]; [7]", "value": 0}, {"measurement": "Number of animals in which tumor is not detectable and not observed", "setting": "[2]; SD, low-dose 1 mg/kg once daily 15 d, recovery period d7", "value": 0}, {"measurement": "Number of animals in which tumor is not detectable and not observed", "setting": "[2]; SG, high-dose 5 mg/kg once daily 5 d, d0", "value": 0}, {"measurement": "Number of animals in which tumor is not detectable and not observed", "setting": "[2]; [8]", "value": 0}, {"measurement": "Number of animals in which tumor is not detectable and not observed", "setting": "[2]; [9]", "value": 0}, {"measurement": "Number of animals in which tumor is not detectable and not observed", "setting": "[2]; SG, high-dose 5 mg/kg once daily 5 d, d9", "value": 0}, {"measurement": "Number of animals in which tumor is not detectable and not observed", "setting": "[2]; SG, high-dose 5 mg/kg once daily 5 d, d12", "value": 0}, {"measurement": "Number of animals in which tumor is not detectable and not observed", "setting": "[2]; SG, high-dose 5 mg/kg once daily 5 d, d15", "value": 0}, {"measurement": "Number of animals in which tumor is not detectable and not observed", "setting": "[2]; SG, high-dose 5 mg/kg once daily 5 d, recovery period d7", "value": 0}, {"measurement": "bioluminescence detection data", "setting": "[2]; positive control high-dose group 5 mg/kg, after the 6th day administration", "value": "sharp increase"}]}, {"compound": "CC[C@@]1(O)C(=O)OCc2c1cc1n(c2=O)Cc2cc3cc(O)ccc3nc2-1", "note": "[hydroxycamptothecin for injection, hydroxycamptothecin]", "values": [{"measurement": "number of surviving animals", "setting": "[1]; X, 2 mg/kg once daily 15 d, d0 before administration", "value": "(10)"}, {"measurement": "number of surviving animals", "setting": "[1]; X, 2 mg/kg once daily 15 d, d3", "value": "(10)"}, {"measurement": "number of surviving animals", "setting": "[1]; X, 2 mg/kg once daily 15 d, d6", "value": "(9)"}, {"measurement": "number of surviving animals", "setting": "[1]; X, 2 mg/kg once daily 15 d, d9", "value": "(9)"}, {"measurement": "number of surviving animals", "setting": "[1]; [10]", "value": "(9)"}, {"measurement": "number of surviving animals", "setting": "[1]; [11]", "value": "(9)"}, {"measurement": "number of surviving animals", "setting": "[1]; X, 2 mg/kg once daily 15 d, d21 (7th day after last administration)", "value": "(7)"}, {"measurement": "Number of animals in which tumor is not detectable and not observed", "setting": "[2]; X, 2 mg/kg once daily 15 d, d0", "value": 0}, {"measurement": "Number of animals in which tumor is not detectable and not observed", "setting": "[2]; X, 2 mg/kg once daily 15 d, d3", "value": 0}, {"measurement": "Number of animals in which tumor is not detectable and not observed", "setting": "[2]; X, 2 mg/kg once daily 15 d, d6", "value": 0}, {"measurement": "Number of animals in which tumor is not detectable and not observed", "setting": "[2]; X, 2 mg/kg once daily 15 d, d9", "value": 0}, {"measurement": "Number of animals in which tumor is not detectable and not observed", "setting": "[2]; [10]", "value": 0}, {"measurement": "Number of animals in which tumor is not detectable and not observed", "setting": "[2]; [11]", "value": 0}, {"measurement": "Number of animals in which tumor is not detectable and not observed", "setting": "[2]; X, 2 mg/kg once daily 15 d, recovery period d7", "value": 0}]}]}
